In brackets after ≈: the same amount, converted by molar mass.
Assays:
[1] = test system: dengue virus type 2; test: Antiviral activity against DENV2 infected in human A549 or golden hamster BHK21 cells preincubated with viral inoculum for 30 mins followed by viral inoculum removal after 1 hr and subsequently incubated with fresh medium containing compound and measured 8 hrs post-infection by luciferase reporter gene assay; type: functional, cell-based
[2] = Cytotoxicity against golden hamster BHK21 cells by MTT assay; type: cell-based, Mesocricetus auratus, BHK-21
[3] = test system: Bovine viral diarrhea virus 1; test: Antiviral activity against BVDV; type: functional; details: Bovine viral diarrhea virus isolates and strains
[4] = Selectivity index, ratio of CC50 for golden hamster BHK21 cells to EC50 for DENV2
[5] = Selectivity index, ratio of CC50 for human A549 cells to EC50 for DENV2
[6] = Cytotoxicity against human A549 cells by MTT assay; type: cell-based
[7] = Aqueous solubility of the compound in buffer at pH 7.4 after 48 hrs UV spectroscopy based shake flask method; type: physicochemical
[8] = Aqueous solubility of the compound in buffer at pH 6.4 after 48 hrs UV spectroscopy based shake flask method; type: physicochemical
[9] = Aqueous solubility of the compound in buffer at pH 2.0 after 48 hrs UV spectroscopy based shake flask method; type: physicochemical
[10] = Stability of the compound in pH 7.4 PBS buffer after 24 to 48 hrs by chromatographic method; type: physicochemical

EC50 [1] [µM]	EC50 [3] [µM]	solubility thermodynamic at 48 h [7] [µg/mL]	solubility thermodynamic at 48 h [8] [µg/mL]	solubility thermodynamic at 48 h [9] [µg/mL]	Stability [10] [h]	Structure (SMILES)	CC50 [2] [µM]	Ratio CC50/EC50 [4]	Ratio CC50/EC50 [5]	CC50 [6] [µM]
22.7	> 50	–	–	–	–	O=C(Nc1ccccc1OCc1ccc(Cl)c(Cl)c1)c1ccco1	> 100	>5	>5	> 100
28.7	> 50	–	–	–	–	O=C(NC(=S)N1CCc2ccccc21)c1ccc(C#Cc2ccccc2)nc1	> 100	>4	>4	> 100
–	–	–	7.3 (≈ 22 µM)	–	–	CN1C(C(=O)Nc2ccccn2)=C(O)c2ccccc2S1(=O)=O [PIROXICAM]	–	–	–	–

More lines, now with the values behind:

Structure (SMILES)	EC50 [1] [µM]	EC50 [3] [µM]	solubility thermodynamic at 48 h [7] [µg/mL]	solubility thermodynamic at 48 h [8] [µg/mL]	solubility thermodynamic at 48 h [9] [µg/mL]	Stability [10] [h]	CC50 [2] [µM]	Ratio CC50/EC50 [4]	Ratio CC50/EC50 [5]	CC50 [6] [µM]
O=C(CSCC(=O)Nc1ccc(OC(F)(F)F)cc1)NNC(=S)Nc1ccccc1	5.1	> 50	1.2 (≈ 2.62 µM)	13.1 (≈ 28.6 µM)	8.2 (≈ 17.9 µM)	> 48	> 100	>20	>20	> 100
O=C(Nc1ccc(Oc2ncnc3cc(Cl)ccc23)nc1)c1ccc(-c2ccccn2)s1	3.1	> 50	2.9 (≈ 6.31 µM)	10.1 (≈ 22 µM)	12.7 (≈ 27.6 µM)	> 48	> 100	>32	>32	> 100
O=C1Nc2ccc(Cl)cc2[C@@](C#CC2CC2)(C(F)(F)F)O1 [EFAVIRENZ]	–	–	–	68.3 (≈ 216 µM)	–	–	–	–	–	–
